Values joined by “and” are separate entries in the source; they are usually repeats but may differ in a detail not shown here. Identical values can stand only once.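 Cultured in 96-well plates, cells were exposed to test compound for 48 hours across five concentrations. Abbreviation: GI50, concentration required for 50% inhibition of growth. TGI: concentration producing complete growth inhibition.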
Columns and labels:
Assay in all cases: NCI tumour cell line growth inhibition, 48 h
T-47D breast = test system: T-47D breast
BT-549 breast = test system: BT-549 breast
ACHN renal = test system: ACHN renal
EKVX NSCLC = test system: EKVX NSCLC
NCI/ADR-RES ovarian = test system: NCI/ADR-RES ovarian
DU-145 prostate = test system: DU-145 prostate
MDA-MB-231 breast = test system: MDA-MB-231 breast
RPMI-8226 leukemia = test system: RPMI-8226 leukemia
786-0 renal = test system: 786-0 renal
XF 498 CNS = test system: XF 498 CNS
P388/ADR leukemia = test system: P388/ADR leukemia

Compound	GI50 (T-47D breast) [µM]	TGI (T-47D breast) [µM]	GI50 (BT-549 breast) [µM]	TGI (BT-549 breast) [µM]	GI50 (ACHN renal) [µM]	TGI (ACHN renal)	GI50 (EKVX NSCLC) [µM]	TGI (EKVX NSCLC) [µM]	GI50 (NCI/ADR-RES ovarian) [µM]	TGI (NCI/ADR-RES ovarian) [µM]	GI50 (DU-145 prostate) [µM]	TGI (DU-145 prostate) [µM]	TGI (MDA-MB-231 breast) [µM]	TGI (RPMI-8226 leukemia)	GI50 (MDA-MB-231 breast) [µM]	TGI (786-0 renal)	TGI (XF 498 CNS) [µM]	TGI (P388/ADR leukemia) [µM]	GI50 (RPMI-8226 leukemia) [µM]
c1ccc(N2N=C(c3cccc(Nc4ccncc4)c3)CC2c2ccc3c(c2)OCO3)cc1 (centres undefined)	2.1	5.12	1.83	4.06	1.64	3.21 µM	2.66	11	1.66	3.6	1.85	3.66							
CCOC1=NC(C(F)(F)F)(C(F)(F)F)N=C(N2CCOCC2)O1		> 100		> 100		> 100 µM		> 100		> 100		> 100	> 100	> 100 µM					
COc1nc2ccc(COc3ccc(C(=O)NC(CCC(=O)O)C(=O)O)cc3)cc2nc1OC (centres undefined)		> 10				> 10 µM		> 10				> 10	> 10	> 10 µM					
COc1cc([C@@H]2c3cc4c(c(O)c3C[C@H]3COC(=O)[C@@H]32)OCO4)cc(OC)c1OC	0.324	> 231			1.43	121 µM and > 100 µM							> 100	27.4 µM and > 241 µM	0.392	46.8 µM and > 100 µM	0.0887	35.1	
O=C1C(Cl)N(c2cccc(Cl)c2)C1c1c[nH]c2ccccc12 (centres undefined)								> 100						> 100 µM			> 100		
Nc1ccccc1Nc1ccccc1C(=O)[O-].Nc1ccccc1Nc1ccccc1C(=O)[O-].[Zn+2]						> 100 µM		> 100						> 100 µM		> 100 µM	78.7		
Cc1nc2c(c(=O)[nH]1)S/C(=C(/C#N)c1nc3ccccc3[nH]1)N2c1ccccc1						> 100 µM		> 100						> 100 µM			> 100		
COc1ccc2c(c1O)-c1cc(O)cc3c1[C@@H](C2)N(C)CC3								187		227				286 µM			160	180	
C=C(C)C(=O)O[C@H]1CC2=C[C@@H](C[C@@]3(C)O[C@@H]3[C@H]3OC(=O)C(=C)[C@@H]31)OC2=O								4.82		5.18				26.3 µM				11.1	0.915
C(/C=C/c1ccccc1)=Nc1ccc2c(c1)Cc1ccccc1-2		> 100		> 100		> 100 µM		> 100		> 100		> 100	> 100			> 100 µM			
COc1cc(C2S/C(=C/c3ccccc3)C(=O)N2c2ccc(NC(C)=O)cc2)cc(OC)c1OC (centres undefined)		55.1		65.4		77.8 µM		38.4		76.2			41.3						
NC(CSCc1ccc(I)cc1)C(=O)O (centres undefined)		> 100		> 100		> 100 µM		> 100		> 100		> 100	> 100	> 100 µM		> 100 µM			
CC[C@@H]1ON(C)[C@H]2CN(C)C(=O)[C@@H]12		> 100				> 100 µM				> 100		> 100	> 100	> 100 µM					
CC(=O)N1N=C(c2ccc3ccccc3c2O)CC1c1cccs1 (centres undefined)		> 100		83.9		> 100 µM				39.5		> 100	> 100	47.1 µM					

— PubChem BioAssay (NCI)
